Data set [1] can be described thus: log P by HPLC (OECD Guideline 117), method [a] acidic range. It counts as physicochemical. The conditions noted are these: for logP[a]: HPLC, method [a] acidic range; for chromatographic logP: reversed-phase C18 HPLC column, acidic range. Here is the method: (§1) The log P values were determined analogously to OECD Guideline 117 (EC Directive 92/69/EEC) by HPLC (high-performance liquid chromatography) using reversed-phase columns (C 18), by the following methods:
[a] The LC-MS determination in the acidic range is effected at pH 2.7 with 0.1% aqueous formic acid and acetonitrile (contains 0.1% formic acid) as eluents; linear gradient from 10% acetonitrile to 95% acetonitrile.

For data set [2], the system named is Tetranychus urticae. The data set can be described thus: Tetranychus urticae spray test, OP-resistant (TETRUR). It counts as in vivo. The conditions noted are these: application rate of 500 g/ha, after 6 days; for pest or weed control at 500 g/ha: Tetranychus urticae, 144 h, read-out: efficacy. A digest of the protocol:
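Bean leaf discs infested with all stages of an OP-resistant Tetranychus urticae strain sprayed with compound in acetone/DMF with alkylaryl polyglycol ether emulsifier, diluted in water. Efficacy in % scored after 6 days; 100% means all mites killed.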

Data set [3] can be described thus: log P by HPLC (OECD Guideline 117), method [b] neutral range. It counts as physicochemical. As to conditions: HPLC; for logP[b]: method [b] neutral range; for chromatographic logP: reversed-phase C18 HPLC column, neutral range, pH 7.8. The protocol:
as §1
[b] The LC-MS determination in the neutral range is effected at pH 7.8 with 0.001 molar aqueous ammonium hydrogencarbonate solution and acetonitrile as eluents; linear gradient from 10% acetonitrile to 95% acetonitrile.

Setting [4] is: pH 2.7, HPLC method [a], read-out: logP[a].
Where [5] appears, read: pH 2.7, HPLC, pH 2.7, read-out: log P[a].

In the case of `CC1=CC(=O)N(c2cc(SCC(F)(F)F)c(C)cc2F)C1=O` [Example 340], the “logP[a]” value in data set [1] is reported as 3.37. In addition, in data set [2], the efficacy worked out at 90%. The “logP[b]” value in data set [3] amounted to 3.39.
As for `CCC(C)c1nn(-c2cc([S+]([O-])CC(F)(F)F)c(C)cc2F)c(=O)n1C1CC1` (racemic) [Example 86], the “logP[a]” value in data set [1] is on record as 2.86. This compound returned an efficacy in data set [2] of 100%. Moreover, the “logP[b]” value in data set [3] was 2.79.
Consider `COc1nn(-c2cc(SCC(F)(F)F)c(Cl)cc2F)c(=O)n1C1CC1` [Example 114], for which the “logP[a]” value in data set [1] came to 3.32. In data set [2], this compound had an efficacy of 100%. Further, the “logP[b]” value in data set [3] was 3.27.
As for `Cc1nn(-c2cc([S+]([O-])CC(F)(F)F)c(C)cc2F)c(=O)o1` (stereo not shown) [Example 451, 3-{2-Fluoro-4-methyl-5-[(2,2,2-trifluoroethyl)sulphinyl]phenyl}-5-methyl-1,3,4-oxadiazol-2(3H)-one], the values for the chromatographic logP in data set [1] (setting [4]), in data set [1] (setting [5]) and in data set [3] were 1.99, 1.99 and 2.02, respectively. The pest or weed control at 500 g/ha in data set [2] turned out to be 90%.
For `CCCOc1nn(-c2cc([S+]([O-])CC(F)(F)F)c(C)cc2F)c(=O)n1C1CC1` (stereo not shown) [Example 112], the “logP[a]” value in data set [1] worked out at 2.83. Moreover, the efficacy in data set [2] is recorded as 90%. Further, the “logP[b]” value in data set [3] is reported as 2.79.
In the case of `Cc1cc(F)c(-n2nc(SCC(F)F)n(C)c2=O)cc1[S+]([O-])CC(F)(F)F` (racemic) [Example 289], the “logP[a]” value in data set [1] was found to be 3.30. Besides, the efficacy in data set [2] was 100%. For the same compound, the “logP[b]” value in data set [3] is on record as 3.25.
For the compound `Cc1cc(F)c(-n2nnn(-c3ccc(Cl)cc3)c2=O)cc1SCC(F)(F)F` [Example 306, 1-(4-Chlorophenyl)-4-{2-fluoro-4-methyl-5-[(2,2,2-trifluoroethyl)sulphanyl]phenyl}-1,4-dihydro-5H-tetrazol-5-one], the figures for the chromatographic logP in data set [1] (setting [4]), in data set [1] (setting [5]) and in data set [3] were 4.75, 4.75 and 4.59, respectively. In addition, the pest or weed control at 500 g/ha in data set [2] worked out at 100%.
Take `COc1nn(-c2cc(SCC(F)(F)F)c(Br)cc2F)c(=O)n1C1CC1` [Example 173]: the “logP[a]” value in data set [1] is reported as 3.43. Also, in data set [2], the efficacy is 100%. In addition, in data set [3], the “logP[b]” value is 3.36.
With `COc1nn(-c2ccc(C(F)(F)F)c(SCC(F)(F)F)c2)c(=O)n1C1CC1` [Example 144], the “logP[a]” value in data set [1] came out at 4.14. Also, the efficacy in data set [2] is reported as 90%. Also, the “logP[b]” value in data set [3] came out at 3.85.
For the compound `COc1cc(F)c(-n2nc(OCC(C)(C)C)n(C3CC3)c2=O)cc1SCC(F)(F)F` [Example 395], the “logP[a]” value in data set [1] turned out to be 4.38. In addition, in data set [2], the efficacy was 100%. The “logP[b]” value in data set [3] is reported as 4.32.
With `CNn1c(C2CC2)nn(-c2cc(SCC(F)(F)F)c(C)cc2F)c1=O` [Example 199], the “logP[a]” value in data set [1] is 3.15. The compound further had an efficacy in data set [2] of 100%. Also, the “logP[b]” value in data set [3] stood at 3.07.
In the case of `CCC(C)c1nn(-c2cc(SCC(F)(F)F)c(C)cc2F)c(=O)n1C1CC1` (stereo not shown) [Example 85], in data set [1], the “logP[a]” value was 4.01. Also, in data set [2], the efficacy is 100%. Further, the “logP[b]” value in data set [3] was 3.94.
Taken in the same sequence, the figures for `Cc1cc(F)c(-n2nc(OC(C)(C)C)n(C)c2=O)cc1[S+]([O-])CC(F)(F)F` (stereo not shown) [Example 184] were 2.82, 100% and 2.76.
`CC1=C(C)C(=O)N(c2cc([S+]([O-])CC(F)(F)F)c(C)cc2F)C1=O` (stereo not shown) [Example 341]: in data set [1], the “logP[a]” value was 2.52. For the same compound, the efficacy in data set [2] is recorded as 90%. For the same compound, the “logP[b]” value in data set [3] was determined as 2.49.
Turning to `CNc1nn(-c2cc(SCC(F)(F)F)c(C)cc2F)c(=O)n1N` [Example 218], in data set [1], the “logP[a]” value came to 2.06. In data set [2], the efficacy is reported as 90%. Also, in data set [3], the “logP[b]” value came out at 2.04.
Regarding `CCSc1nn(-c2cc(SCC(F)(F)F)c(C)cc2F)c(=O)n1CC` [Example 292], the “logP[a]” value in data set [1] was determined as 3.91. The same compound yielded an efficacy in data set [2] of 100%. For the same compound, the “logP[b]” value in data set [3] worked out at 3.86.
Turning to `CCCOc1nn(-c2cc([S+]([O-])CC(F)(F)F)c(C)cc2F)c(=O)n1C` (stereo not shown) [Example 132], in data set [1], the “logP[a]” value is on record as 2.52. For the same compound, the efficacy in data set [2] is recorded as 100%. Also, the “logP[b]” value in data set [3] was 2.47.
Taken in the same sequence, the figures for `Cc1cc(C)c(-n2nnn(C(C)C)c2=O)cc1SCC(F)(F)F` [Example 298] were 3.81, 100% and 3.78.
In the case of `C=CCn1c(SC)nn(-c2cc(SCC(F)(F)F)c(C)cc2F)c1=O` [Example 271], the “logP[a]” value in data set [1] amounted to 3.61. Moreover, the efficacy in data set [2] is listed as 100%. Further, the “logP[b]” value in data set [3] stood at 3.58.
For `CNn1c(N(C)C)nn(-c2cc([S+]([O-])CC(F)(F)F)c(C)cc2F)c1=O` (stereo not shown) [Example 217], the “logP[a]” value in data set [1] is recorded as 2.02. In data set [2], this compound registered an efficacy of 90%. In addition, the “logP[b]” value in data set [3] worked out at 1.98.
On to `CCCSc1nn(-c2cc([S+]([O-])CC(F)(F)F)c(C)cc2F)c(=O)n1C` (stereo not shown) [Example 278], for which the “logP[a]” value in data set [1] was found to be 2.80. Further, in data set [2], the efficacy came to 100%. Besides, the “logP[b]” value in data set [3] is given as 2.74.
As for `Cc1cc(F)c(-n2ncn(C(C)C)c2=O)cc1[S+]([O-])CC(F)(F)F` (stereo not shown) [Example 6, 2-{2-Fluoro-4-methyl-5-[(2,2,2-trifluoroethyl)sulphinyl]phenyl}-4-isopropyl-2,4-dihydro-3H-1,2,4-triazol-3-one], the chromatographic logP in data set [1] (setting [4]) is 1.88; in data set [1] (setting [5]) it was 1.88; in data set [3], 2.02. In data set [2], the pest or weed control at 500 g/ha turned out to be 80%.
For the compound `COCc1nn(-c2cc(SCC(F)(F)F)c(C)cc2F)c(=S)n1C1CC1` [Example 492], the “logP[a]” value in data set [1] is listed as 3.49. Moreover, the efficacy in data set [2] is 100%. Besides, the “logP[b]” value in data set [3] is 3.43.
Taken in the same sequence, the figures for `Cc1cc(F)c(-n2nc(CCOC(C)C)n(C3CC3)c2=O)cc1SCC(F)(F)F` [Example 359] were 3.63, 100% and 3.66.
Take `C=CCn1c(OCC(F)(F)F)nn(-c2cc(SCC(F)(F)F)c(C)cc2F)c1=O` [Example 399]: in data set [1], the “logP[a]” value is 3.94. In data set [2], this compound displayed an efficacy of 90%. The “logP[b]” value in data set [3] turned out to be 3.89.
For `CNn1c(N(C)C)nn(-c2cc(SCC(F)(F)F)c(C)cc2F)c1=O` [Example 216], the “logP[a]” value in data set [1] amounted to 3.03. The compound further showed an efficacy in data set [2] of 100%. Also, in data set [3], the “logP[b]” value is 2.99.
Taken in the same sequence, the figures for `Cc1cc(F)c(-n2nc(OCC(C)(C)C)n(C3CC3)c2=O)cc1SCC(F)(F)F` [Example 386] were 4.77, 100% and 4.71.
On to `CC1=C(C)C(=O)N(c2cc(SCC(F)(F)F)c(C)cc2F)C1=O` [Example 339, 1-{2-Fluoro-4-methyl-5-[(2,2,2-trifluoroethyl)sulphanyl]phenyl}-3,4-dimethyl-1H-pyrrole-2,5-dione], for which the chromatographic logP in data set [1] (setting [4]) worked out at 3.6; in data set [1] (setting [5]), 3.6; in data set [3], 3.61. For the same compound, in data set [2], the pest or weed control at 500 g/ha amounted to 90%.
For the compound `COc1nn(-c2cc([S+]([O-])CC(F)(F)F)c(F)cc2F)c(=O)n1C1CC1` (stereo not shown) [Example 170], the “logP[a]” value in data set [1] is listed as 2.15. Besides, in data set [2], the efficacy was 100%. The “logP[b]” value in data set [3] turned out to be 2.11.

These data come from patent US9981940B2, “Aryl sulfide derivatives and aryl sulfoxide derivatives as acaricides and insecticides” (BAYER CROPSCIENCE AKTIENGESELLSCHAFT, priority 2013, dated 2018).
